Measured values taken from patent EP4596537A1, “NOVEL FLUORENE DERIVATIVE COMPOUND AND USE THEREOF” (JD Bioscience Inc., priority 2022, dated 2024).

Legend:
[1] = tested on: HCT-116 colorectal cancer cell line; assay: Anticancer efficacy in HCT-116 colorectal cancer tumor model; assay type: in vivo, nude mice; conditions: for reduced tumor growth (tumor volume) compared to vehicle: 21 times, day 24
Description: A colorectal cancer model was established by subcutaneously transplanting HCT-116 colorectal cancer cell line into nude mice. The colorectal cancer model was divided into the following three groups: Group 1 was administered a vehicle as a control group, Group 2 was administered 0.5 mg/kg of Compound 1, and Group 3 was administered 1.0 mg/kg of Compound 1. The drug was orally administered once a day for a total of 21 times. To evaluate the therapeutic efficacy, the tumor size was measured before drug administration and on days 3, 7, 10, 14, 17, 21, and 24 after drug administration. The tumor size was calculated as follows: Tumor size (mm^3) = (A×B^2)/2 [formula] wherein A and B represent the tumor long axis and short axis, respectively.
In addition, the body weight was measured before drug administration and on days 7, 14, and 21 after drug administration.

[2] = tested on: C57BL6J mice; assay: Acute kidney ischemic reperfusion (IR) injury animal model; assay type: in vivo; conditions: 4 µg/kg and 8 µg/kg via tail vein; vs vehicle-treated IR group
Description: Vehicle and Compound 1 (4 µg/kg or 8 µg/kg) were administered to 8-week-old male C57BL6J mice via the tail vein 24 hours before, 1 hour before, and 12 hours after ischemic reperfusion (IR) surgery. The surgery was performed by blocking the artery leading to the kidney to induce ischemia for 37 minutes. The blocked artery was released, and 24 hours later, the mice were anesthetized and autopsied. Other part was used to synthesize cDNA, and a kidney damage marker, NGAL was identified by real-time PCR. And serum was separated from the blood, and creatinine, which is a kidney damage marker in the serum, was examined, and the results are shown in FIG. 3.

[3] = tested on: liver cancer cells; assay: Growth inhibition (Cell Counting Kit-8), liver cancer cells; assay type: cell-based; conditions: 24 hours, 0.5% FBS
Description: (§1) In order to verify the growth inhibitory effect of Compound 1 on various normal and cancer cell lines, 25 types of cell lines listed in Table 7 below were tested. In detail, each cell was seeded at a density of 2 × 10^4 cells/well in a 96-well plate and cultured for 24 hours, and then the medium was replaced with a medium comprising 0.5% (for cancer cells) or 10% (for normal cells) FBS, and Compound 1 was treated at various concentrations. 24 hours later, 10 µL of Cell Counting Kit-8 (Dojindo Molecular Technologies) was added, and 1 hour later, absorbance at 480 nm was measured using a microplate reader (TECAN SPARK), and the results are shown in FIGS. 15 to 21.

[4] = tested on: bladder cancer cells; assay: Growth inhibition (Cell Counting Kit-8), bladder cancer cells; assay type: cell-based; conditions: 24 hours, 0.5% FBS
Description: as §1

[5] = tested on: Mfn2^-/^- MEF cells; assay: Mitochondrial oxygen consumption rate (Seahorse), Charcot-Marie-Tooth disease model; assay type: cell-based, mouse; conditions: 1 µM, 24 hours
Description: To verify the functional loss due to mutation of MFN2 present in the outer mitochondrial membrane, which is the main cause of Charcot-Marie-Tooth disease, the mitochondrial oxygen consumption rate (OCR) was measured. In detail, Mfn2^+/^+ MEF cells (normal cells), which are mouse embryonic fibroblasts expressing Mfn2, and Mfn2^-/^- MEF cells not expressing Mfn2 were cultured at a density of 1 × 10^4 for 24 hours in a Seahorse XF24 culture dish using a DMEM medium supplemented with 10% FBS and penicillin/streptomycin. The cells were treated with DMSO as a vehicle and Compound 1 (1 µM) and cultured for another 24 hours. The mitochondrial oxygen consumption rate was measured using a […] (Agilent Technologies), and the results are shown in FIG. 13.

[6] = tested on: KKAy diabetes mice; assay: Intraperitoneal glucose tolerance test (IPGTT) in diabetes animal model; assay type: in vivo; conditions: 0.5 mg/kg once a day by oral gavage, 10 weeks; 1 g/kg glucose i.p.; vs vehicle group
Description: A vehicle (10% DMSO + 0.5% methylcellulose) and the compound of Example 1 (Compound 1) were administered to 6-week-old male KKAy diabetes mice (n = 6 per group) at a dose of 0.5 mg/kg once a day by oral gavage. At 10 weeks of administration, an intraperitoneal glucose tolerance test (IPGTT) was performed by intraperitoneally administering 1 g/kg of glucose, and the results are shown in FIG. 1.

[7] = tested on: NCI-H295R cells; assay: Cortisol production (ELISA), Cushing's syndrome cell model; assay type: cell-based, human; conditions: 0.1 µM, 0.5 µM, and 1 µM; 0.5 mM 8-Br-cAMP; concentration-dependent
Description: NCI-H295R cells (ATCC #CRL-2128), which are a human adrenocortical carcinoma cell line, were seeded at a density of 2.5 × 10^5 cells/well in a 24-well plate. The cells were cultured for 48 hours, and then they were pretreated with Compound 1 (0.1 µM, 0.5 µM, and 1 µM) for 12 hours. Furthermore, to increase cortisol synthesis, the cells were treated with 8-bromoadenosine […] monophosphate (8-Br-cAMP) at a concentration of 0.5 mM, and then re-treated with Compound 1, and allowed to react for 24 hours. After the reaction, the cell culture medium was collected, and the amount of cortisol produced in the cells was measured using an ELISA kit, and the results are shown in FIG. 14.

[8] = tested on: normal cells; assay: Growth inhibition (Cell Counting Kit-8), normal cells; assay type: cell-based; conditions: 24 hours, 10% FBS; concentration of up to less than 40 µM
Description: as §1

[9] = tested on: C57BL6J mice; assay: LPS-induced sepsis animal model, viability; assay type: in vivo; conditions: 15 mg/kg i.p. 30 min before 50 mg/kg LPS
Description: 50 mg/kg of lipopolysaccharide (LPS) administration dose corresponds to the 'half lethal dose' that causes death of one half of the population within 24 hours. […] The animal experiment was conducted with six 8-week-old male C57BL6J mice per group. Each mouse was intraperitoneally administered 15 mg/kg of Compound 1 or pretreated with 100 µL of 10% DMSO (vehicle control). 30 minutes later, 50 mg/kg lipopolysaccharide was intraperitoneally injected into each mouse, and the viability was examined for 80 hours, and the results are shown in FIG. 9 and Table 2.

CC(C(=O)NNc1ccc(F)cc1)n1cc(-c2cc(F)cc3c2-c2ccccc2C3(O)C(F)(F)F)cn1 (stereo not drawn) [Example 1, 2-(4-(2-fluoro-9-hydroxy-9-(trifluoromethyl)-9H-fluoren-4-yl)-1H-pyrazol-1-yl)-N'-(4-fluorophenyl)propanehydrazide]
body weight change ([1]; 0.5 mg/kg and 1.0 mg/kg oral, days 7, 14, 21): no significant body weight change
reduced tumor growth (tumor volume) compared to vehicle ([1]; 0.5 mg/kg oral once a day): 41%
reduced tumor growth (tumor volume) compared to vehicle ([1]; 1.0 mg/kg oral once a day): 49%
RNA expression of NGAL (kidney) [2]: significantly reduced
apoptosis of kidney tissue (TUNEL staining) [2]: significant reduction
renal tubular tissue damage (H&E staining) [2]: significant reduction
serum creatinine [2]: significantly reduced
concentration at which viability began to rapidly decrease to 70% or less [3]: 10 µM
concentration at which viability began to rapidly decrease to 70% or less [4]: less than 1.2 µM
mitochondrial oxygen consumption rate (OCR) [5]: markedly restored to a level comparable to that of normal cells
blood glucose increase (IPGTT) [6]: significantly suppressed
cortisol production [7]: significantly inhibited
viability [8]: ≥ 70%
Viability (%) ([9]; Time 0 h): 100%
Viability (%) ([9]; Time 20 h): 100%
Viability (%) ([9]; Time 60 h): 50%
Viability (%) ([9]; Time 70 h): 50%
Viability (%) ([9]; Time 80 h): 50%
